Measurements taken from the supplement of paper PMC10307832.

Experiments:
Assay in all cases: relative viability (nuclei count vs DMSO), 5 days (fraction); higher = more cells survive
[1] = compound: CC1=C(C(=NN1)C)CC2=C(C3=C(S2)N(C(=O)N(C3=O)C)CC(C)C)C(=O)N4C[C@@H](CO4)O + CC(=O)c1c(C)c2cnc(Nc3ccc(N4CCNCC4)cn3)nc2n(C2CCCC2)c1=O [Palbociclib] (partner 0.5 µM)
Procedure, shortened: (§1)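 For relative viability, nuclei counts in treated wells were divided by those in vehicle wells. Lung cancer cell lines had been pin-tool dosed in 1536-well plates the day after seeding and cultured for 5 days, then fixed and stained in one step (final 0.05% Triton X-100, 1% formaldehyde, 1 ug/ml Hoechst) and imaged at 4×. Doses were one drug alone or a fixed anchor-drug dose plus five library-drug doses (not always all listed) in √10 steps, and values are duplicate-plate medians.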

[2] = compound: CC1=C(C(=NN1)C)CC2=C(C3=C(S2)N(C(=O)N(C3=O)C)CC(C)C)C(=O)N4C[C@@H](CO4)O + Cc1nc(NC(=O)N2CCC[C@H]2C(N)=O)sc1-c1ccnc(C(C)(C)C(F)(F)F)c1 [Alpelisib] (partner 2 µM)
Procedure, shortened: as §1

IDH-C35 + Pictilisib = compound: Cc1ccccc1C(C(=O)NC1CCCCC1)N(C(=O)Cn1ccnc1C)c1cccc(F)c1 [IDH-C35] + CS(=O)(=O)N1CCN(Cc2cc3nc(-c4cccc5[nH]ncc45)nc(N4CCOCC4)c3s2)CC1 [Pictilisib] (partner 1 µM)
Procedure, shortened: as §1

IDH-C35 + Pemetrexed = compound: Cc1ccccc1C(C(=O)NC1CCCCC1)N(C(=O)Cn1ccnc1C)c1cccc(F)c1 [IDH-C35] + Nc1nc2[nH]cc(CCc3ccc(C(=O)N[C@@H](CCC(=O)O)C(=O)O)cc3)c2c(=O)[nH]1 [Pemetrexed] (partner 0.2 µM)
Procedure, shortened: as §1

Row | Cell Line | relative viability ([1]; first compound 0.0025 µM) | relative viability ([1]; first compound 0.007906 µM) | relative viability ([1]; first compound 0.025 µM) | relative viability ([1]; first compound 0.07906 µM) | relative viability ([1]; first compound 0.25 µM) | relative viability ([2]; first compound 0.0025 µM) | relative viability ([2]; first compound 0.007906 µM) | relative viability ([2]; first compound 0.025 µM) | relative viability ([2]; first compound 0.07906 µM) | relative viability ([2]; first compound 0.25 µM) | relative viability (IDH-C35 + Pictilisib; first compound 0.08 µM) | relative viability (IDH-C35 + Pictilisib; first compound 0.253 µM) | relative viability (IDH-C35 + Pictilisib; first compound 0.8 µM) | relative viability (IDH-C35 + Pictilisib; first compound 2.53 µM) | relative viability (IDH-C35 + Pictilisib; first compound 8 µM) | relative viability (IDH-C35 + Pemetrexed; first compound 0.08 µM) | relative viability (IDH-C35 + Pemetrexed; first compound 0.253 µM) | relative viability (IDH-C35 + Pemetrexed; first compound 0.8 µM) | relative viability (IDH-C35 + Pemetrexed; first compound 2.53 µM) | relative viability (IDH-C35 + Pemetrexed; first compound 8 µM)
1 | NCI-H2009 | 0.222 | 0.206 | 0.221 | 0.319 | 0.175 | 1.31 | 1.23 | 1.14 | 1.26 | 1.15 | 0.903 | 0.75 | 0.907 | 0.709 | 0.8 | 1.02 | 0.968 | 0.936 | 1.01 | 0.936
2 | HCC-15 | 0.788 | 0.77 | 0.726 | 0.727 | 0.788 | 0.953 | 0.914 | 0.901 | 0.854 | 0.942 | 0.719 | 0.727 | 0.682 | 0.618 | 0.645 | 0.206 | 0.235 | 0.223 | 0.226 | 0.227
3 | HCC-44 | 0.989 | 0.992 | 0.961 | 0.894 | 1.05 | 0.817 | 0.851 | 0.798 | 0.795 | 0.777 | 0.537 | 0.593 | 0.551 | 0.674 | 0.632 | 0.6 | 0.639 | 0.658 | 0.633 | 0.667
4 | COR-L23 | 0.291 | 0.266 | 0.238 | 0.245 | 0.318 | 0.782 | 0.709 | 0.59 | 0.759 | 0.739 | 0.85 | 0.769 | 0.833 | 0.79 | 0.833 | 0.18 | 0.205 | 0.2 | 0.201 | 0.173
5 | HCC-78 | 0.534 | 0.546 | 0.464 | 0.469 | 0.44 | 0.409 | 0.343 | 0.315 | 0.319 | 0.299 | 0.211 | 0.243 | 0.199 | 0.243 | 0.219 | 0.918 | 0.918 | 0.897 | 0.912 | 0.943
6 | NCI-H2087 | 0.244 | 0.264 | 0.193 | 0.16 | 0.223 | 0.952 | 1.03 | 1.12 | 1.31 | 1.18 | 1.15 | 0.901 | 0.83 | 0.984 | 0.886 | 0.732 | 0.592 | 0.678 | 0.647 | 0.697
7 | BEN | 0.448 | 0.484 | 0.471 | 0.423 | 0.502 | 0.976 | 1.01 | 0.826 | 0.858 | 0.987 | 0.545 | 0.568 | 0.54 | 0.54 | 0.505 | 0.633 | 0.929 | 0.73 | 0.762 | 0.857
8 | LCLC-103H | 0.426 | 0.471 | 0.508 | 0.478 | 0.443 | 1.06 | 1 | 0.959 | 0.957 | 0.896 | 0.7 | 0.62 | 0.536 | 0.715 | 0.603 | 0.452 | 0.49 | 0.467 | 0.48 | 0.428
9 | EKVX | 0.475 | 0.44 | 0.417 | 0.368 | 0.39 | 0.906 | 1.07 | 0.835 | 0.923 | 0.734 | 0.42 | 0.459 | 0.371 | 0.423 | 0.475 | 0.443 | 0.332 | 0.395 | 0.369 | 0.42
10 | LXF-289 | 0.525 | 0.605 | 0.574 | 0.586 | 0.613 | 1.01 | 1.01 | 1.03 | 1.01 | 1.07 | 0.813 | 0.767 | 0.689 | 0.85 | 0.725 | 1.02 | 0.857 | 0.859 | 0.894 | 0.797
11 | NCI-H650 | 0.345 | 0.353 | 0.274 | 0.334 | 0.347 | 1.28 | 1.11 | 0.972 | 1 | 1.18 | 0.926 | 0.863 | 0.847 | – | 0.851 | 0.911 | 0.96 | 0.893 | – | 0.893
12 | NCI-H2085 | 0.495 | 0.439 | 0.431 | 0.451 | 0.492 | 0.989 | 0.975 | 0.831 | 0.855 | 0.873 | 0.489 | 0.523 | 0.451 | 0.49 | 0.442 | 0.943 | 0.889 | 0.889 | 0.893 | 0.888
13 | NCI-H1793 | 0.3 | 0.36 | 0.324 | 0.313 | 0.3 | 0.724 | 0.826 | 0.546 | 0.554 | 0.742 | 0.265 | 0.336 | 0.364 | 0.371 | 0.256 | 0.759 | 0.783 | 0.804 | 1.04 | 0.854
14 | LC-2-ad | 0.46 | 0.518 | 0.456 | 0.467 | 0.55 | 0.985 | 0.85 | 0.842 | 0.897 | 0.921 | 0.595 | 0.472 | 0.439 | 0.441 | 0.455 | 0.265 | 0.285 | 0.275 | 0.266 | 0.278
15 | COR-L 105 | 0.433 | 0.423 | 0.395 | 0.403 | 0.383 | 1.03 | 0.896 | 1.12 | 1.01 | 0.999 | 0.442 | 0.477 | 0.354 | 0.383 | 0.392 | 1.03 | 1.19 | 0.954 | 0.912 | 1
16 | NCI-H1355 | 0.413 | 0.459 | 0.408 | 0.401 | 0.414 | 0.937 | 0.887 | 0.878 | 0.893 | 0.74 | 0.446 | 0.442 | 0.395 | 0.269 | 0.398 | 1.11 | 1.02 | 0.987 | 1 | 1
17 | H3255 | 0.32 | 0.326 | 0.269 | 0.296 | 0.315 | 0.768 | 0.676 | 0.697 | 0.759 | 0.736 | 0.454 | 0.546 | 0.474 | 0.503 | 0.424 | 0.595 | 0.589 | 0.573 | 0.632 | 0.499
18 | NCI-H1993 | 0.689 | 0.731 | 0.709 | 0.597 | 0.75 | 0.69 | 0.608 | 0.719 | 0.615 | 0.722 | 0.902 | 0.853 | 0.766 | 0.743 | 0.712 | 0.527 | 0.628 | 0.677 | 0.598 | 0.637
19 | NCI-H1734 | 0.328 | 0.396 | 0.349 | 0.307 | 0.322 | 0.692 | 0.771 | 0.667 | 0.757 | 0.677 | 0.503 | 0.499 | 0.427 | 0.414 | 0.432 | 0.432 | 0.423 | 0.443 | 0.413 | 0.409
20 | HOP-62 | 0.409 | 0.418 | 0.461 | 0.404 | 0.574 | 0.959 | 1.15 | 1.01 | 0.862 | 0.696 | 0.509 | 0.744 | 0.537 | – | 0.581 | 0.302 | 0.309 | 0.255 | 0.338 | 0.346
21 | LOU-NH91 | 0.535 | 0.565 | 0.508 | 0.496 | 0.526 | 0.734 | 0.626 | 0.791 | 0.799 | 0.708 | 0.528 | 0.548 | 0.516 | 0.496 | 0.531 | 0.422 | 0.393 | 0.425 | 0.347 | 0.361
22 | NCI-H2228 | 0.794 | 0.768 | 0.779 | 0.793 | 0.933 | 0.911 | 0.673 | 1.01 | 0.722 | 0.9 | 0.328 | 0.296 | 0.421 | 0.486 | 0.457 | 0.307 | 0.336 | 0.332 | 0.328 | 0.3
23 | PC-14 | 0.453 | 0.45 | 0.493 | 0.468 | 0.646 | 1.05 | 0.877 | 0.886 | 0.974 | 0.975 | 0.712 | 0.685 | 0.641 | 0.575 | 0.642 | 0.127 | 0.135 | 0.152 | 0.154 | 0.133
24 | NCI-H1437 | 0.357 | 0.348 | 0.284 | 0.296 | 0.303 | 0.993 | 1 | 0.946 | 0.972 | 1.06 | 0.416 | 0.494 | 0.476 | 0.439 | 0.368 | 0.35 | 0.291 | 0.362 | 0.299 | 0.296
25 | NCI-H460 | 0.181 | 0.199 | 0.204 | 0.226 | 0.217 | 0.721 | 0.493 | 0.575 | 0.492 | 0.571 | 0.43 | 0.438 | 0.325 | 0.326 | 0.297 | 0.0621 | 0.0643 | 0.0648 | 0.0655 | 0.0759
26 | NCI-H1666 | 0.702 | 0.641 | 0.734 | 0.591 | 0.636 | 1.06 | 1.01 | 1.02 | 1.13 | 0.953 | 0.471 | 0.404 | 0.322 | 0.622 | 0.426 | 0.881 | 0.825 | 0.822 | 0.874 | 0.718
27 | NCI-H1651 | 0.54 | 0.562 | 0.493 | 0.532 | 0.508 | 1.07 | 1.02 | 0.923 | 0.961 | 0.945 | 0.562 | 0.522 | 0.504 | 0.492 | 0.434 | 0.53 | 0.615 | 0.571 | 0.607 | 0.641
